Data: patent US20150082479A1, “CHEMICAL SELECTION OF RESISTANT GAMETES OF PLANTS IN THE FIELD” (PIONEER HI BRED INTERNATIONAL INC, priority 2008, published 2015)

How the values were obtained:
Type in all cases: in vivo, maize
wild type gametes [1] = experiment: Treated hemizygous plants selfed; progeny scored for level of zygosity via QtPCR
Text: (§1) A series of crosses were made from the treated plants to identify the gamete rouging effects of glyphosate on both pollen and ovules. To characterize the effects on pollen, heterozygous plants treated with glyphosate were crossed onto a wild type inbred. To characterize the effect of glyphosate on ovules, non-treated wild type pollen was crossed to heterozygous plants treated with glyphosate. Finally, the treated heterozygous plants were selfed and tested for zygosity via quantitative PCR.
In the second method of analysis, the glyphosate resistant selfed plants were grown in the field and leaf punched at the V8 stage of development. Leaf tissues were then frozen and scored for their level of zygosity according to standard PCR protocols for glyphosate resistance. The data from the progeny tests was arc sine transformed and submitted to a common analysis of variance. Since the F-test for overall treatments was highly significant, tests of significance between the controls and the various treatments were also conducted.
Plants hemizygous for glyphosate resistance were sprayed with glyphosate and then selfed. The progeny were then scored for level of zygosity via QtPCR. While the results from PCR corroborate data from the leaf dip assays, the magnitude of the response is less (as expressed in FIG. 10).

non-transgenic gametes = experiment: Field application of herbicide to hemizygous glyphosate resistant plants at V12-V19; crosses, progeny seedlings sprayed, survivors counted, chi square of segregation ratios
Procedure: The elimination of non-transgenic gametes was also tested at the V12-V19 stages. Meiosis sorted the transgene of a diploid hemizygous microsporophyte or macrosporophyte into one-half of the gametes. The resulting transgenic construct contained a gene conferring plant resistance or tolerance to a specific herbicide, namely glyphosate. Application of the herbicide treatments at various growth phases eliminated gametes lacking the transgenic construct.
Glyphosate treatments included: V12, V17, V19, V15+V17, and V17+V19. Each application, included splits 3 quarts/A. Only resistant plants were sprayed. Glufosinate treatments included: V12, V17, V18, V19, V15+V17, and V17+V19. Each application, included splits 1.5 quarts/A. Only resistant plants were sprayed.
Pollination of the sprayed resistant plants included: 4 selfed, 4 pollinations from unsprayed resistant, 4 pollinations from susceptible. Pollination of the unsprayed resistant plants included: 4 selfed, 4 pollinations from sprayed resistant, 4 pollinations from susceptible. […]
Survivors were counted and chi square analysis performed to determine whether segregation ratios deviated from the null hypothesis (e.g., 75:25 resistant phenotype for selfs or crosses within the resistant hemizygous hybrids, 50:50 resistant phenotype for crosses between resistant and susceptible hybrids, or 100% mortality for susceptible selfed seed).

wild type ovules = experiment: Non-treated wild type pollen crossed to treated heterozygous plants; progeny leaf dip test
Text: (§2) Four row plots of a heterozygous inbred for glyphosate resistance were established. At the V10, V12, V14 and V10+V14 stages of plant development, glyphosate was broadcast to the center two rows. The WeatherMax glyphosate formulation was applied at 0, 1.6 and 3.2 l/Ha, such rates corresponding to 0, 1 and 2 times the normal commercial rates in corn production. To assure there was no glyphosate drift on the non-treated controls, non-treated plants were separated by 16 border rows.
as §1
(§3) The progeny of the various crosses from Example 2 were evaluated by two methods. In the first method, 25 seeds per replication (4 replications in total) were planted into rag dolls and grown at 25° C. in darkness four days. After this time, the rag dolls were transferred to a greenhouse to allow the shoots to turn green. After four days in the greenhouse, seedlings for each rag doll were dipped in a 2% v/v solution of RoundUp Ultra (concentration corresponding to common concentrations in spray applications at the field level). After one week, individual plants were rated as normal, dead or abnormal. Normal plants were assumed to carry the gene for tolerance to glyphosate, dead plants were assumed to be wild type.
The effects of glyphosate on wild type ovules were less pronounced than for pollen gametes (as expressed in FIG. 8). In the control treatment, untreated heterozygous plants were pollinated with homozygous wild type pollen. Expected segregation ratios for the progeny of this cross would be 50% resistant and 50% susceptible. Here, the control progeny segregated at 54% resistant, statistically equal to the expected ratio of 50%. […] At the highest rate of glyphosate, the segregation of progeny was clearly disturbed. High rates applied at the V14 stage produced progeny nearly 100% resistant, while applications made before V14 were intermediate.

wild type pollen = experiment: Treated heterozygous plants crossed onto wild type inbred; progeny leaf dip test (rag doll, 2% v/v RoundUp Ultra)
Text: as §2, §1, §3
The crosses separated the effects of glyphosate on pollen and ovule gametes. To separate effects on pollen, heterozygous plants were sprayed with glyphosate and pollen collected from treated plants was crossed onto homozygous wild type plants. […]

wild type gametes [2] = experiment: Treated heterozygous plants selfed; progeny leaf dip test; settings: all treatments except V12 at the lowest rate, non-treated 75% (FIG. 9)
Text: as §2, §1
The progeny of the various crosses from Example 2 were evaluated by two methods. In the first method, 25 seeds per replication (4 replications in total) were planted into rag dolls and grown at 25° C. in darkness four days. After this time, the rag dolls were transferred to a greenhouse to allow the shoots to turn green. […]

O=C(O)CNCP(=O)(O)O [glyphosate]
ratio of homozygous wild type plants in selfed progeny (QtPCR) (wild type gametes [1]; sprayed then selfed (FIG. 10)): significantly reduced the ratio of homozygous wild type plants
percentage of homozygous glyphosate resistant plants in selfed progeny (QtPCR) (wild type gametes [1]; two pass applications at the highest rates (FIG. 10)): produced the greatest percentage of homozygous glyphosate resistant plants
elimination of non-transgenic gametes (non-transgenic gametes; application at V12, 3 quarts/A, glyphosate resistant plants (FIG. 1)): eliminated most non-transgenic female and male gametes
elimination of non-transgenic gametes (non-transgenic gametes; application at V15 or later, 3 quarts/A, glyphosate resistant plants (FIGS. 2-5)): primarily eliminated non-transgenic female gametes
progeny resistant to glyphosate (wild type ovules; high rates applied at V14, expected 50% if no effect (FIG. 8)): ~100%
progeny resistant to glyphosate (wild type ovules; highest rate, applications made before V14 (FIG. 8)): intermediate
segregation of progeny (wild type ovules; treated at V10 and V12 at the lowest rate, pollinated with wild type pollen (FIG. 8)): segregated as expected if glyphosate had no affect on wild type ovules
progeny resistant to glyphosate (wild type ovules; two pass program V10+V14 (FIG. 8)): ~100%
effect on wild type pollen: dependence on rate or time of application (wild type pollen; 1.6 vs 3.2 l/Ha, V10, V12, V14, V10+V14): not affected by rate or time of application
rouging of wild type pollen (leaf dip test) (wild type pollen; V10, V12, V14, V10+V14, 1.6 and 3.2 l/Ha (FIG. 7)): highly effective in rouging wild type pollen
progeny resistant to glyphosate (wild type pollen; treated plants crossed to wild type ovules, all rates and timings, expected 50% if no effect (FIG. 7)): ~100%
progeny resistant to glyphosate (wild type gametes [2]): ~100%
